“And” between values parts separate entries of the source, which are not always exact repeats. Equal entries are not always repeated.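 Test compounds were applied to cells in 96-well plates for 48 hours at 5 doses. At the GI50, growth is halved. TGI is the concentration that stops growth completely.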
Columns and labels:
Assay in all cases: NCI anticancer screen, dose series, 48 h
CAKI-1 renal = test system: CAKI-1 renal
EKVX NSCLC = test system: EKVX NSCLC
HCT-15 colon = test system: HCT-15 colon
HS 578T breast = test system: HS 578T breast
OVCAR-8 ovarian = test system: OVCAR-8 ovarian
SF-295 CNS = test system: SF-295 CNS
SK-MEL-5 melanoma = test system: SK-MEL-5 melanoma
UACC-62 melanoma = test system: UACC-62 melanoma
RPMI-8226 leukemia = test system: RPMI-8226 leukemia
MCF7 breast = test system: MCF7 breast

| Compound | GI50 (CAKI-1 renal) [µM] | TGI (CAKI-1 renal) [µM] | GI50 (EKVX NSCLC) [µM] | TGI (EKVX NSCLC) [µM] | GI50 (HCT-15 colon) [µM] | TGI (HCT-15 colon) [µM] | GI50 (HS 578T breast) [µM] | TGI (HS 578T breast) [µM] | GI50 (OVCAR-8 ovarian) [µM] | TGI (OVCAR-8 ovarian) [µM] | GI50 (SF-295 CNS) [µM] | TGI (SF-295 CNS) | GI50 (SK-MEL-5 melanoma) [µM] | TGI (SK-MEL-5 melanoma) [µM] | GI50 (UACC-62 melanoma) [µM] | TGI (UACC-62 melanoma) [µM] | TGI (RPMI-8226 leukemia) [µM] | TGI (MCF7 breast) [µM] | GI50 (RPMI-8226 leukemia) [µM] | GI50 (MCF7 breast) [µM] |
| --- | --- | --- | --- | --- | --- | --- | --- | --- | --- | --- | --- | --- | --- | --- | --- | --- | --- | --- | --- | --- |
| COc1ccc(-c2nc(/C=N/Nc3cc(C)nc4ccc(Br)cc34)c(C)o2)cc1 | 1.62 | 2.98 | 1.93 | 3.44 | 0.902 | 2.33 | 2.02 | 4.1 | 1.79 | 3.86 | 1.9 | 3.49 µM | 1.78 | 3.18 | 1.76 | 3.34 |  |  |  |  |
| C(/C=C/N1CCCC1)=C\c1nc(N2CCCC2)c2ccccc2n1 |  | 35.3 |  | 37.9 |  | 32.5 |  |  |  | > 100 |  | 35.4 µM |  | 33.3 |  | 44.1 | 42.3 |  |  |  |
| O=C(/C(=N/Nc1cn[nH]c(=O)c1Cl)c1ccccc1)c1ccccc1 |  | 93.1 |  | 83.1 |  | 51.3 |  |  |  | > 100 |  | > 100 µM |  | > 100 |  | 53.5 | 60.7 | > 100 |  |  |
| O=C(NOC(=O)c1ccc([N+](=O)[O-])cc1)c1ccc(Cl)cc1 |  | > 100 |  | > 100 |  | > 100 |  |  |  | > 100 |  | > 100 µM |  | > 100 |  | > 100 | > 100 |  |  |  |
| Cc1cc(N(CCC#N)CCC#N)ccc1/C=C/C(=O)Nc1ccccc1Cl |  | > 100 |  | > 100 |  | > 100 |  |  |  | > 100 |  | > 100 µM |  | > 100 |  | > 100 | > 100 |  |  |  |
| CC1(C)Oc2ccccc2N2O[C@@H]3C(=O)N(c4ccccc4)C(=O)[C@@H]3C21c1ccccc1 (stereo partly drawn) |  | 60.8 |  | > 100 |  |  |  |  |  |  |  | 32.2 µM |  | 44.3 |  | 87.8 | > 100 |  |  |  |
| O=c1ncccn1C1OC(CO)C(O)C1F (stereo not drawn) |  | > 100 |  | > 100 | > 100 | > 100 |  |  |  | > 100 |  | > 100 µM |  | > 100 | > 100 | > 100 | > 100 |  |  |  |
| COc1cc(-c2nn3c(=O)n(-c4ccc(Cl)cc4)c(=O)nc3s2)cc(OC)c1OC | > 50 | > 62.2 | > 50 | > 100 | > 50 | > 100 |  |  |  | > 100 | 18.2 | > 50 µM and 90.2 µM |  | > 100 | > 100 | > 100 | > 100 |  | > 100 |  |
| O=c1c2ccccc2c(=O)c2c1sc1c(=O)c3ccc(O)cc3c(=O)c12 | 1.29 | 3.26 | 1.34 | 3.66 |  |  | 0.33 | 0.973 | 1.78 | 8.31 | 0.178 | 0.361 µM | 0.127 | 0.256 | 0.174 | 0.331 | 5.25 |  | 1.42 |  |
| CN1C(=O)CC2(C)c3cc(C=O)ccc3N(C)C12 (stereo not drawn) |  |  |  | > 100 |  | > 100 |  |  |  | > 100 |  | > 100 µM |  | > 100 |  | > 100 |  |  |  |  |
| O=C1Cc2ccccc2CCc2ccccc21 |  | > 100 |  | > 100 |  | > 100 |  |  |  | > 100 |  | > 100 µM |  | > 100 |  | > 100 | > 100 |  |  |  |
| CCC1(Cl)C(=O)NC(=O)N(C2CC(O)C(CO)O2)C1N=[N+]=[N-] (stereo not drawn) |  | > 100 |  | > 100 |  |  |  |  |  | > 100 |  | > 100 µM |  | > 100 |  | > 100 | > 100 |  |  |  |
| COc1cc2c(c(OC)c1OC)-c1ccc(SC)c(=O)cc1[C@@H](NC(=O)c1ccc(F)cc1)CC2 |  |  | < 0.01 | > 100 | 0.043 |  |  |  | < 0.01 | 14.6 | < 0.01 |  | 0.0305 |  | < 0.01 | 27.6 |  |  |  |  |
| CCOc1ccccc1NC(=O)CCC(=O)NN |  | > 100 |  |  |  | > 100 |  |  |  | > 100 |  | > 100 µM |  | > 100 |  | > 100 | > 100 |  |  |  |
| BrC(Br)([P+](c1ccccc1)(c1ccccc1)c1ccccc1)[P+](c1ccccc1)(c1ccccc1)c1ccccc1 |  | 39.5 |  | 63 |  | 98.2 |  |  |  | 26.4 |  | > 100 µM |  | 32.2 |  | 29.8 | 34.4 |  |  |  |
| N#CC1=C(N)NC(=S)C(C#N)C12Nc1ccccc1S2 (stereo not drawn) | 11 | 35.1 | 0.793 | 8.04 | 15 | 42.3 |  |  | 27.2 | 65 | 19.5 | 47.8 µM | 12.8 | 26.7 | 18 | 33.4 | > 100 | > 100 | 61.6 | 8.14 |

From PubChem BioAssay (NCI)
